{
  "source": "paper PMC10176891",
  "about": "(Bioorganic & Medicinal Chemistry Letters, 2023)",
  "key": {"[1]": {"assay": "Predicted human clearance by simple allometric scaling", "conditions": "simple allometric scaling method"}, "Mouse PK": {"assay": "Mouse PK", "format": "in vivo", "conditions": "iv 3 mg/kg"}, "[2]": {"assay": "Liver microsome stability, rat", "format": "in vitro ADME", "conditions": "liver microsomes"}, "[3]": {"assay": "Hepatocytes stability, mouse", "format": "in vitro ADME"}, "[4]": {"assay": "Hepatocytes stability, human", "format": "in vitro ADME"}, "Rat PK": {"assay": "Rat PK", "format": "in vivo", "conditions": "iv 2 mg/kg"}, "[5]": {"assay": "Hepatocytes stability, rat", "format": "in vitro ADME"}, "HCoV-OC43": {"test_system": "HCoV-OC43", "format": "in vivo", "conditions": "intraperitoneal injection, 7 days, 6 neonatal mice per group"}, "[6]": {"assay": "Liver microsome stability, mouse", "format": "in vitro ADME", "conditions": "liver microsomes"}, "[7]": {"assay": "Liver microsome stability, human", "format": "in vitro ADME", "conditions": "liver microsomes"}, "SARS-CoV-2 M^pro": {"biological_target": "SARS-CoV-2 M^pro (Severe acute respiratory syndrome coronavirus 2, UniProt P0DTD1)", "assay": "SARS-CoV-2 Mpro enzymatic assay", "format": "biochemical"}, "[8]": {"conditions": "vehicle 40% PEG400 + 60 %saline"}},
  "data": [
    {"smiles": "CC(C)(C)NC(=O)C(=O)[C@H](C[C@@H]1CCNC1=O)NC(=O)[C@@H]1[C@H]2CCC[C@H]2CN1C(=O)[C@@H](NC(=O)C(F)(F)F)C1CCCCC1", "note": "[4a]", "values": [
      {"measurement": "Predicted human clearance", "setting": "[1]", "value": "about 2.9 ml/min/kg"},
      {"measurement": "CL", "setting": "Mouse PK; [8]", "value": "2.50 mL min^−1 kg^−[1]"},
      {"measurement": "CLint scaled", "setting": "[2]", "value": 25, "unit": "mL/min/kg"},
      {"measurement": "CLint scaled", "setting": "[3]", "value": 1020, "unit": "mL/min/kg"},
      {"measurement": "CLint scaled", "setting": "[4]", "value": "< 17.8", "unit": "mL/min/kg"},
      {"measurement": "CL", "setting": "Rat PK; [8]", "value": "2.55 mL min^−1 kg^−[1]"},
      {"measurement": "CLint scaled", "setting": "[5]", "value": 42, "unit": "mL/min/kg"},
      {"measurement": "Mice survived at day 14", "setting": "HCoV-OC43; high dosing group", "value": "6/6"},
      {"measurement": "Mice survived", "setting": "HCoV-OC43; low dosing group", "value": "four out of six"},
      {"measurement": "CLint scaled", "setting": "[6]", "value": 212, "unit": "mL/min/kg"}
    ]},
    {"smiles": "N#C[C@H](C[C@@H]1CCNC1=O)NC(=O)[C@@H]1[C@H]2CCC[C@H]2CN1C(=O)[C@@H](NC(=O)C(F)(F)F)C1CCCCC1", "note": "[3a]", "values": [
      {"measurement": "CLint scaled", "setting": "[7]", "value": 19, "unit": "mL/min/kg"},
      {"measurement": "CL", "setting": "Mouse PK; vehicle saline", "value": "92.2 mL min^−1 kg^−[1]"},
      {"measurement": "CLint scaled", "setting": "[2]", "value": "< 17.3", "unit": "mL/min/kg"},
      {"measurement": "CLint scaled", "setting": "[3]", "value": 455, "unit": "mL/min/kg"},
      {"measurement": "CLint scaled", "setting": "[4]", "value": "< 17.8", "unit": "mL/min/kg"},
      {"measurement": "CL", "setting": "Rat PK; vehicle saline", "value": "62.7 mL min^−1 kg^−[1]"},
      {"measurement": "CLint scaled", "setting": "[5]", "value": 51, "unit": "mL/min/kg"},
      {"measurement": "CLint scaled", "setting": "[6]", "value": 215, "unit": "mL/min/kg"}
    ]},
    {"smiles": "CC(C)(C)[C@H](NC(=O)C(F)(F)F)C(=O)N1C[C@H]2[C@@H]([C@H]1C(=O)N[C@H](C#N)C[C@@H]1CCNC1=O)C2(C)C", "note": "[nirmatrelvir, reference compound]", "values": [
      {"measurement": "CLint scaled", "setting": "[7]", "value": 29, "unit": "mL/min/kg"},
      {"measurement": "CL", "setting": "Mouse PK; vehicle saline", "value": "30.2 mL min^−1 kg^−[1]"},
      {"measurement": "CLint scaled", "setting": "[2]", "value": "< 17.3", "unit": "mL/min/kg"},
      {"measurement": "CLint scaled", "setting": "[3]", "value": 169, "unit": "mL/min/kg"},
      {"measurement": "CLint scaled", "setting": "[4]", "value": "< 17.8", "unit": "mL/min/kg"},
      {"measurement": "CL", "setting": "Rat PK; vehicle saline", "value": "42.0 mL min^−1 kg^−[1]"},
      {"measurement": "CLint scaled", "setting": "[5]", "value": "< 29.9", "unit": "mL/min/kg"},
      {"measurement": "CLint scaled", "setting": "[6]", "value": 329, "unit": "mL/min/kg"}
    ]},
    {"smiles": "CC(C)(C)NC(=O)C(=O)[C@H](C[C@@H]1CCNC1=O)NC(=O)[C@@H]1[C@H]2CCC[C@H]2CN1C(=O)[C@@H](NC(=O)C(F)(F)F)C1CCCC1", "note": "[4c]", "values": [
      {"measurement": "CL", "setting": "Mouse PK; [8]", "value": "5.06 mL min^−1 kg^−[1]"}
    ]},
    {"smiles": "N#C[C@H](C[C@@H]1CCNC1=O)NC(=O)[C@@H]1[C@H]2CCC[C@H]2CN1C(=O)[C@@H](NC(=O)C(F)(F)F)c1ccc(F)cc1", "note": "[3b]", "values": [
      {"measurement": "Fold weaker in enzymatic potency relative to 2a", "setting": "SARS-CoV-2 M^pro; relative to 2a", "value": 4, "unit": "fold"}
    ]},
    {"smiles": "CC(=O)N[C@H](C(=O)N1C[C@@H]2CCC[C@@H]2[C@H]1C(=O)N[C@H](C#N)C[C@@H]1CCNC1=O)C1CCCCC1", "note": "[3c]", "values": [
      {"measurement": "Folds loss in enzymatic and cell potencies", "setting": "SARS-CoV-2 M^pro; P3 cap modifications, enzymatic and cell potencies", "value": "3–10 folds"}
    ]},
    {"smiles": "CC(C)(C)[C@H](NC(=O)C(F)(F)F)C(=O)N1C[C@@H]2CCC[C@@H]2[C@H]1C(=O)N[C@H](C#N)C[C@@H]1CCNC1=O", "note": "[2a]", "values": [
      {"measurement": "CLint scaled", "setting": "[7]", "value": 13, "unit": "mL/min/kg"},
      {"measurement": "CL", "setting": "Mouse PK; vehicle saline", "value": "79.3 mL min^−1 kg^−[1]"},
      {"measurement": "CLint scaled", "setting": "[2]", "value": "< 17.3", "unit": "mL/min/kg"},
      {"measurement": "CLint scaled", "setting": "[3]", "value": 435, "unit": "mL/min/kg"},
      {"measurement": "CLint scaled", "setting": "[4]", "value": "< 17.8", "unit": "mL/min/kg"},
      {"measurement": "CL", "setting": "Rat PK; vehicle saline", "value": "75.4 mL min^−1 kg^−[1]"},
      {"measurement": "CLint scaled", "setting": "[5]", "value": 32, "unit": "mL/min/kg"},
      {"measurement": "CLint scaled", "setting": "[6]", "value": 262, "unit": "mL/min/kg"}
    ]}
  ]
}
